Laboratory results: patent US20260167673A1, “NOVEL POLYPEPTIDE, POLYPEPTIDE DERIVATIVE AND USE THEREOF” (NANJING ANJI BIOTECHNOLOGY CO., LTD., priority 2023, published 2026)
Marks after values point to notes of the source that are not given here. Where no end group is shown, it is not given here.

Tests used:
Assay type in all cases: cell-based
[1] = tested on: human lung squamous cell carcinoma cells SK-MES-1; experiment: CCK8 proliferation inhibition, SK-MES-1; details: SK-MES-1, 50 μM, 48 h
Experimental: (§1) Incubation was continued for 4 h in a cell incubator, an absorbance was measured at 450 nm, and a proliferation inhibition was calculated. Data was presented as mean±SD, and GraphPad Prism 5.0 statistical software was used. A t-test was used for comparison between two groups, while One-way Anova (Dunnett) was used for comparison among a plurality of groups.

[2] = tested on: human acute promyelocytic leukemia cells NB4; experiment: CCK8 proliferation inhibition, NB4; details: NB4, 50 μM, 48 h
Experimental: as §1

[3] = tested on: human cervical cancer cells Hela; experiment: CCK8 proliferation inhibition, Hela; details: 50 μM, 48 h
Experimental: as §1

[4] = tested on: human breast cancer cells MDA-MB-231; experiment: CCK8 proliferation inhibition, MDA-MB-231; details: MDA-MB-231, 50 μM, 48 h
Experimental: as §1

[5] = tested on: human giant cell lung cancer cells 95-D; experiment: CCK8 proliferation inhibition, 95-D; details: 50 μM, 48 h
Experimental: as §1

[6] = tested on: human gastric cancer cells BGC-823; experiment: CCK8 proliferation inhibition, BGC-823; details: BGC-823, 50 μM, 48 h
Experimental: as §1

[7] = tested on: human ileocecal cancer cells HCT-8; experiment: CCK8 proliferation inhibition, HCT-8; details: HCT-8, 50 μM, 48 h
Experimental: as §1

[8] = tested on: human diffuse large B-cell lymphoma (DLBCL) cells WSU-DLCL2; experiment: CCK8 proliferation inhibition, WSU-DLCL2; details: WSU-DLCL2, 50 μM, 48 h
Experimental: as §1

[9] = tested on: human kidney cancer cells Ketr-3; experiment: CCK8 proliferation inhibition, Ketr-3; details: Ketr-3, 50 μM, 48 h
Experimental: as §1

[10] = tested on: human tongue squamous cell carcinoma cells CAL27; experiment: CCK8 proliferation inhibition, CAL27 (Example 5); details: CAL27, 50 μM, 48 h
Experimental: as §1

[11] = tested on: human pancreatic cancer cells PANC-1; experiment: CCK8 proliferation inhibition, PANC-1; details: PANC-1, 50 μM, 48 h
Experimental: as §1

[12] = tested on: human lung adenocarcinoma cells SPC-A1; experiment: CCK8 proliferation inhibition, SPC-A1; details: SPC-A1, 50 μM, 48 h
Experimental: as §1

[13] = tested on: human acute lymphoblastic leukemia cells CEM/C1; experiment: CCK8 proliferation inhibition, CEM/C1; details: CEM/C1, 50 μM, 48 h
Experimental: as §1

[14] = tested on: human melanoma A375 cells; experiment: Transwell metastasis inhibition, A375; details: 48 h
Experimental: (§2) Melanoma, cervical cancer, ovarian cancer, liver cancer, and lung cancer cells were seeded into transwell chambers, with 100 μL per well. Different doses of the HMMW micropeptide and the novel polypeptide HMMW15-51 were added to each chamber as a treatment group, while no drug was added to a blank group. Then, 0.6 mL of a complete culture medium containing 10% FBS was added to the lower chambers of the transwell to stimulate cell metastasis, and the cells were cultured at 5% CO2 and 37° C. for 48 h. The culture solution was discarded from the wells. The cells were fixed with methanol at room temperature for 30 min, stained with 0.1% crystal violet at room temperature for 10 min, and rinsed with clean water. The upper layer nonmetastatic cells were wiped off with a cotton swab. The cells were observed under a microscope, and four fields of view were selected to take photos and count the cells. A metastasis inhibition (MI) was calculated according to a formula: […]
(§3) where Ntest represents the number of cell metastases in the treatment group, and Ncontrol represents the number of cell metastases in the blank control group.
(§4) Data was presented as mean±SD, and GraphPad Prism 5.0 statistical software was used.

[15] = tested on: human breast cancer cells SK-BR-3; experiment: CCK8 proliferation inhibition, SK-BR-3; details: SK-BR-3, 50 μM, 48 h
Experimental: as §1

[16] = tested on: human kidney clear cell adenocarcinoma cells 786-O; experiment: CCK8 proliferation inhibition, 786-O; details: 50 μM, 48 h
Experimental: as §1

[17] = tested on: human nasopharyngeal carcinoma cells CNE-2Z; experiment: CCK8 proliferation inhibition, CNE-2Z; details: 50 μM, 48 h
Experimental: as §1

[18] = tested on: human liver cancer Hep3B cells; experiment: Transwell metastasis inhibition, Hep3B; details: 50 μmol/L, 48 h
Experimental: as §2, §3, §4

[19] = tested on: human lung cancer A549 cells; experiment: Transwell metastasis inhibition, A549; details: 48 h
Experimental: as §2, §3, §4

[20] = tested on: human gastric cancer cells MGC-803; experiment: CCK8 proliferation inhibition, MGC-803; details: MGC-803, 50 μM, 48 h
Experimental: as §1

[21] = tested on: human laryngeal epidermoid carcinoma cells HEp2; experiment: CCK8 proliferation inhibition, HEp2; details: HEp2, 50 μM, 48 h
Experimental: as §1

[22] = tested on: human peripheral blood B lymphocytes RPMI 8226 in multiple myeloma; experiment: CCK8 proliferation inhibition, RPMI 8226; details: RPMI 8226, 50 μM, 48 h
Experimental: as §1

[23] = tested on: human cholangiocarcinoma cells QBC939; experiment: CCK8 proliferation inhibition, QBC939; details: QBC939, 50 μM, 48 h
Experimental: as §1

[24] = tested on: human ovarian cancer cells SKOV3; experiment: CCK8 proliferation inhibition, SKOV3 (Example 5); details: SKOV3, 50 μM, 48 h
Experimental: as §1

[25] = tested on: human esophageal cancer cells Eca-109; experiment: CCK8 proliferation inhibition, Eca-109; details: Eca-109, 50 μM, 48 h
Experimental: as §1

[26] = tested on: human liver cancer cells HepG2; experiment: CCK8 proliferation inhibition, HepG2; details: HepG2, 50 μM, 48 h
Experimental: as §1

MERAGVPGFSPRRSSVEAKMQSTSCSVRKSSTVTAWPAVVLLLSWGQRRGG [HMMW]
Inhibition (%) [1]: 54.910 ± 4.426 %
OD [1]: 0.435 ± 0.043
Inhibition (%) [2]: 47.692 ± 4.919 %
OD [2]: 0.740 ± 0.070
Inhibition (%) [3]: 52.644 ± 4.018 %
OD [3]: 0.493 ± 0.049
Inhibition (%) [4]: 65.216 ± 4.512 %
OD [4]: 0.429 ± 0.056
Inhibition (%) [5]: 59.757 ± 5.365 %
OD [5]: 0.442 ± 0.059
Inhibition (%) [6]: 47.730 ± 4.739 %
OD [6]: 0.510 ± 0.046
Inhibition (%) [7]: 48.687 ± 3.785 %
OD [7]: 0.482 ± 0.036
Inhibition (%) [8]: 44.365 ± 2.462 %
OD [8]: 0.731 ± 0.032
Inhibition (%) [9]: 48.708 ± 4.852 %
OD [9]: 0.476 ± 0.045
Inhibition (%) [10]: 67.115 ± 5.457 %
OD [10]: 0.383 ± 0.064
Inhibition (%) [11]: 50.273 ± 6.135 %
OD [11]: 0.424 ± 0.052
Inhibition (%) [12]: 49.128 ± 3.053 %
OD [12]: 0.525 ± 0.032
Inhibition (%) [13]: 46.518 ± 1.484 %
OD [13]: 0.630 ± 0.017
Number of cell metastases ([14]; A375, 50 μmol/L): 371 ± 13.00
Inhibition (%) ([14]; A375 metastasis, 50 μmol/L): 37.13*** %
Inhibition (%) [15]: 53.710 ± 4.902 %
OD [15]: 0.507 ± 0.054
Inhibition (%) [16]: 62.624 ± 7.014 %
OD [16]: 0.413 ± 0.078
Inhibition (%) [17]: 50.952 ± 4.312 %
OD [17]: 0.472 ± 0.042
Inhibition (%) ([18]; Hep3B metastasis): 88.13*** %
Number of cell metastases ([18]; Hep3B): 70 ± 75.82
Number of cell metastases ([19]; A549, 50 μmol/L): 33 ± 20.50
Inhibition (%) ([19]; A549 metastasis, 50 μmol/L): 94.57*** %
Inhibition (%) [20]: 41.094 ± 3.077 %
OD [20]: 0.675 ± 0.035
Inhibition (%) [21]: 42.416 ± 2.236 %
OD [21]: 0.504 ± 0.020
Inhibition (%) [22]: 52.930 ± 4.562 %
OD [22]: 0.578 ± 0.056
Inhibition (%) [23]: 49.490 ± 2.138 %
OD [23]: 0.429 ± 0.018
Inhibition (%) [24]: 52.644 ± 4.018 %
OD [24]: 0.466 ± 0.040
Inhibition (%) [25]: 63.071 ± 2.982 %
OD [25]: 0.350 ± 0.028
Inhibition (%) [26]: 52.579 ± 2.504 %
OD [26]: 0.509 ± 0.027
